Data: PMC5218480 (PLoS ONE, 2017)

Tested on: MV-4-11 cells
Assay: Gene expression microarray analysis (Affymetrix PrimeView) and GSEA
Format: cell-based, human
Parameters: RFU PODN (11730768_x_at) / Fold change /veh PODN (11730768_x_at) / RFU LINC00158 (11744669_a_at) / Fold change /veh LINC00158 (11744669_a_at) / RFU DUSP10 (11751237_a_at) / Fold change /veh DUSP10 (11751237_a_at) / RFU ID3 (11757404_x_at) / Fold change /veh ID3 (11757404_x_at) / RFU PLEKHG5 (11737974_s_at) / Fold change /veh PLEKHG5 (11737974_s_at) / RFU LRRC4B (11730491_at) / Fold change /veh LRRC4B (11730491_at) / RFU GIMAP4 (11747438_a_at) / Fold change /veh GIMAP4 (11747438_a_at) / RFU KRT8 (11758183_x_at) / Fold change /veh KRT8 (11758183_x_at) / RFU CNN1 (11734310_a_at) / Fold change /veh CNN1 (11734310_a_at) / RFU VPS37D (11726825_at) / Fold change /veh VPS37D (11726825_at) / RFU C10orf10 (11716522_x_at) / Fold change /veh C10orf10 (11716522_x_at) / RFU KIR2DL2 /// KIR2DL4 /// KIR2DL5A /// KIR2DL5B /// KIR2DS1 /// KIR2DS2 /// KIR2DS3 /// KIR2DS4 /// KIR3DL3 /// KIR3DL3 /// KIR3DS1 (11738374_at) / Fold change /veh KIR2DL2 /// KIR2DL4 /// KIR2DL5A /// KIR2DL5B /// KIR2DS1 /// KIR2DS2 /// KIR2DS3 /// KIR2DS4 /// KIR3DL3 /// KIR3DL3 /// KIR3DS1 (11738374_at) / RFU C1QL1 (11718748_at) / Fold change /veh C1QL1 (11718748_at) / RFU TMPRSS4 (11747572_a_at) / Fold change /veh TMPRSS4 (11747572_a_at) / RFU HAMP (11756126_x_at) / Fold change /veh HAMP (11756126_x_at) / RFU RNFT2 (11725882_a_at) / Fold change /veh RNFT2 (11725882_a_at) / RFU NR4A2 (11747474_a_at) / Fold change /veh NR4A2 (11747474_a_at) / RFU ABCC12 (11746883_a_at) / Fold change /veh ABCC12 (11746883_a_at) / RFU TMEM136 (11760407_x_at) / Fold change /veh TMEM136 (11760407_x_at) / RFU CLDN22 /// WWC2 (11732394_at) / Fold change /veh CLDN22 /// WWC2 (11732394_at) / RFU HLA-DPB1 (11760878_x_at) / Fold change /veh HLA-DPB1 (11760878_x_at) / RFU SPINT1 (11716480_a_at) / Fold change /veh SPINT1 (11716480_a_at) / RFU GAP43 (11754022_s_at) / Fold change /veh GAP43 (11754022_s_at) / RFU A4GNT (11735810_at) / Fold change /veh A4GNT (11735810_at) / RFU PRB3 (11715151_x_at) / Fold change /veh PRB3 (11715151_x_at) / RFU TUBB4B (11761932_at) / Fold change /veh TUBB4B (11761932_at) / RFU CAPN14 (11732068_a_at) / Fold change /veh CAPN14 (11732068_a_at) / RFU TMCC2 (11721928_a_at) / Fold change /veh TMCC2 (11721928_a_at) / RFU IRGQ (11745062_a_at) / Fold change /veh IRGQ (11745062_a_at) / RFU FAM174B (11720279_a_at) / Fold change /veh FAM174B (11720279_a_at) / RFU TMPRSS4 (11748680_a_at) / Fold change /veh TMPRSS4 (11748680_a_at) / RFU FAM212B (11763350_a_at) / Fold change /veh FAM212B (11763350_a_at) / RFU PLEKHG5 (11743358_a_at) / Fold change /veh PLEKHG5 (11743358_a_at) / RFU ZSCAN30 (11745921_a_at) / Fold change /veh ZSCAN30 (11745921_a_at) / RFU CMKLR1 (11741424_a_at) / Fold change /veh CMKLR1 (11741424_a_at) / RFU LOC101060620 /// MAPK8IP1 (11723275_at) / Fold change /veh LOC101060620 /// MAPK8IP1 (11723275_at) / RFU SPTSSB (11747773_x_at) / Fold change /veh SPTSSB (11747773_x_at) / RFU PRSS12 (11739890_at) / Fold change /veh PRSS12 (11739890_at) / RFU BIN1 (11741810_x_at) / Fold change /veh BIN1 (11741810_x_at) / RFU WNT11 (11732464_a_at) / Fold change /veh WNT11 (11732464_a_at) / RFU C10orf10 (11716521_a_at) / Fold change /veh C10orf10 (11716521_a_at) / RFU C5orf56 (11738089_at) / Fold change /veh C5orf56 (11738089_at) / RFU CYB561 (11721691_x_at) / Fold change /veh CYB561 (11721691_x_at) / RFU ANKRD19P (11752326_a_at) / Fold change /veh ANKRD19P (11752326_a_at) / RFU OR2T12 /// OR2T33 /// OR2T8 (11738714_s_at) / Fold change /veh OR2T12 /// OR2T33 /// OR2T8 (11738714_s_at) / RFU VCAN (11748164_a_at) / Fold change /veh VCAN (11748164_a_at) / RFU JSRP1 (11732532_at) / Fold change /veh JSRP1 (11732532_at) / RFU KRTAP10-11 (11738290_x_at) / Fold change /veh KRTAP10-11 (11738290_x_at) / RFU MYO3A (11730013_a_at) / Fold change /veh MYO3A (11730013_a_at) / RFU EBF3 (11725865_a_at) / Fold change /veh EBF3 (11725865_a_at) / RFU CAMK2N1 (11719241_x_at) / Fold change /veh CAMK2N1 (11719241_x_at) / RFU C5orf56 (11738088_a_at) / Fold change /veh C5orf56 (11738088_a_at) / RFU OLFML3 (11715873_a_at) / Fold change /veh OLFML3 (11715873_a_at) / RFU LOC100653217 /// NTM (11731650_a_at) / Fold change /veh LOC100653217 /// NTM (11731650_a_at) / RFU MAPK11 (11762145_a_at) / Fold change /veh MAPK11 (11762145_a_at) / RFU FIZ1 (11724087_x_at) / Fold change /veh FIZ1 (11724087_x_at) / RFU OASL (11726364_x_at) / Fold change /veh OASL (11726364_x_at) / RFU SOX15 (11748057_x_at) / Fold change /veh SOX15 (11748057_x_at) / RFU CD79A (11719716_a_at) / Fold change /veh CD79A (11719716_a_at) / RFU HIST1H1D (11736915_at) / Fold change /veh HIST1H1D (11736915_at) / RFU CASKIN2 (11723855_a_at) / Fold change /veh CASKIN2 (11723855_a_at) / RFU LOC730098 (11760151_x_at) / Fold change /veh LOC730098 (11760151_x_at) / RFU OR4N2 (11742367_at) / Fold change /veh OR4N2 (11742367_at) / RFU PRRT2 (11749266_a_at) / Fold change /veh PRRT2 (11749266_a_at) / RFU SNX32 (11753110_a_at) / Fold change /veh SNX32 (11753110_a_at) / RFU CDHR5 (11726645_a_at) / Fold change /veh CDHR5 (11726645_a_at) / RFU RCAN1 (11760418_a_at) / Fold change /veh RCAN1 (11760418_a_at) / RFU FAM167A (11723789_a_at) / Fold change /veh FAM167A (11723789_a_at) / RFU FAM26E (11764081_at) / Fold change /veh FAM26E (11764081_at) / RFU ISYNA1 (11749810_s_at) / Fold change /veh ISYNA1 (11749810_s_at) / RFU ACY1 (11761880_at) / Fold change /veh ACY1 (11761880_at) / RFU 11764098_at / Fold change /veh 11764098_at / RFU SAMD14 (11745864_x_at) / Fold change /veh SAMD14 (11745864_x_at) / RFU NPB (11741838_a_at) / Fold change /veh NPB (11741838_a_at) / RFU TMPRSS6 (11731388_a_at) / Fold change /veh TMPRSS6 (11731388_a_at) / RFU KRTAP10-2 (11738614_at) / Fold change /veh KRTAP10-2 (11738614_at) / RFU ARHGAP8 /// PRR5-ARHGAP8 (11727945_x_at) / Fold change /veh ARHGAP8 /// PRR5-ARHGAP8 (11727945_x_at) / RFU KRTAP5-7 /// NADSYN1 (11734609_at) / Fold change /veh KRTAP5-7 /// NADSYN1 (11734609_at) / RFU RASL12 (11751679_a_at) / Fold change /veh RASL12 (11751679_a_at) / RFU CDKN2B (11736163_a_at) / Fold change /veh CDKN2B (11736163_a_at) / RFU PRF1 (11729649_at) / Fold change /veh PRF1 (11729649_at) / RFU, ZNF638 /// ZNF638-IT1 / Fold change vs veh, ZNF638 /// ZNF638-IT1 / RFU, PANK3 / Fold change vs veh, PANK3 / RFU, SH3YL1 / Fold change vs veh, SH3YL1 / RFU, ZEB2 / Fold change vs veh, ZEB2 / RFU, NRIP1 / Fold change vs veh, NRIP1 / RFU, PTTG1IP / Fold change vs veh, PTTG1IP / RFU, CAPN2 / Fold change vs veh, CAPN2 / RFU, MED14 / Fold change vs veh, MED14 / RFU, SNORA58 / Fold change vs veh, SNORA58 / RFU, C1orf63 / Fold change vs veh, C1orf63 / RFU, LRRFIP1 / Fold change vs veh, LRRFIP1 / RFU, NDUFAF7 / Fold change vs veh, NDUFAF7 / RFU, SLC12A2 / Fold change vs veh, SLC12A2 / RFU, IBTK / Fold change vs veh, IBTK / RFU, ESF1 / Fold change vs veh, ESF1 / Fold change vs veh, TMEM50B / RFU, TAOK1 / Fold change vs veh, TAOK1 / RFU, ACBD3 / Fold change vs veh, ACBD3 / RFU, TMA16 / Fold change vs veh, TMA16 / RFU, RWDD3 / Fold change vs veh, RWDD3 / RFU, BCAT1 / Fold change vs veh, BCAT1 / RFU, EDEM3 / Fold change vs veh, EDEM3 / RFU, TMEM33 / Fold change vs veh, TMEM33 / RFU, WDR75 / Fold change vs veh, WDR75 / RFU, AHCTF1 / Fold change vs veh, AHCTF1 / RFU, TFRC / Fold change vs veh, TFRC / RFU, ZDHHC17 / Fold change vs veh, ZDHHC17 / RFU, NOM1 / Fold change vs veh, NOM1 / RFU, ARL8B / Fold change vs veh, ARL8B / RFU, ZBTB11 / Fold change vs veh, ZBTB11 / RFU, TAMM41 / Fold change vs veh, TAMM41 / RFU, KIAA1704 /// LOC100996395 / Fold change vs veh, KIAA1704 /// LOC100996395 / RFU, ING1 / Fold change vs veh, ING1 / RFU, TRMT61B / Fold change vs veh, TRMT61B / RFU, FUBP3 / Fold change vs veh, FUBP3 / RFU, TP53 / Fold change vs veh, TP53 / RFU, TNKS2 / Fold change vs veh, TNKS2 / RFU, ZFP14 / Fold change vs veh, ZFP14 / RFU, ACTR2 / Fold change vs veh, ACTR2 / RFU, PPP3R1 / Fold change vs veh, PPP3R1 / RFU, PIK3R1 / Fold change vs veh, PIK3R1 / RFU, HNRNPA1 / Fold change vs veh, HNRNPA1 / RFU, RNF170 / Fold change vs veh, RNF170 / RFU, ZNF28 / Fold change vs veh, ZNF28 / RFU, RNGTT / Fold change vs veh, RNGTT / RFU, OGT / Fold change vs veh, OGT / RFU, BRD1 / Fold change vs veh, BRD1 / RFU, MARS / Fold change vs veh, MARS / RFU, ZNF655 / Fold change vs veh, ZNF655 / RFU, FAHD1 / Fold change vs veh, FAHD1 / RFU, BDP1 / Fold change vs veh, BDP1 / RFU, LRRCC1 / Fold change vs veh, LRRCC1 / RFU, ARID1A / Fold change vs veh, ARID1A / RFU, ZNF146 / Fold change vs veh, ZNF146 / RFU, ZNF330 / Fold change vs veh, ZNF330 / RFU, GPN3 / Fold change vs veh, GPN3 / RFU, C9orf123 / Fold change vs veh, C9orf123 / RFU, N4BP2L2 / Fold change vs veh, N4BP2L2 / RFU, ARFIP1 / Fold change vs veh, ARFIP1 / RFU, FAM179B / Fold change vs veh, FAM179B / RFU, BCL10 / Fold change vs veh, BCL10 / RFU, UHRF1BP1L / Fold change vs veh, UHRF1BP1L / RFU, BET1 / Fold change vs veh, BET1 / RFU, CNOT2 / Fold change vs veh, CNOT2 / RFU, ZNF268 / Fold change vs veh, ZNF268 / Fold change vs veh, ZNF507 / RFU, DGCR2 / Fold change vs veh, DGCR2 / RFU, WDSUB1 / Fold change vs veh, WDSUB1 / Fold change vs veh, HSP90B1 /// MIR3652 / RFU, ADSS / Fold change vs veh, ADSS / RFU, GK / Fold change vs veh, GK / RFU, ZNF148 / Fold change vs veh, ZNF148 / RFU, TAF9 / Fold change vs veh, TAF9 / RFU, SLC1A5 / Fold change vs veh, SLC1A5 / RFU, SLMO2 / Fold change vs veh, SLMO2 / RFU, ABCC4 / Fold change vs veh, ABCC4 / RFU, LOC101060439 /// RAP1B / Fold change vs veh, LOC101060439 /// RAP1B / RFU, RFX7 / Fold change vs veh, RFX7 / RFU, GTPBP10 / Fold change vs veh, GTPBP10 / RFU, CNEP1R1 / Fold change vs veh, CNEP1R1 / RFU, BIVM-ERCC5 /// ERCC5 / Fold change vs veh, BIVM-ERCC5 /// ERCC5 / RFU, ILF3 / Fold change vs veh, ILF3 / RFU 11762660_at / Fold change /veh 11762660_at / RFU VCAN (11757783_s_at) / Fold change /veh VCAN (11757783_s_at) / RFU DDX43 (11728927_at) / Fold change /veh DDX43 (11728927_at) / RFU KRT8 (11758188_x_at) / Fold change /veh KRT8 (11758188_x_at) / RFU NKD1 (11759106_at) / Fold change /veh NKD1 (11759106_at) / RFU SRD5A1 (11742802_a_at) / Fold change /veh SRD5A1 (11742802_a_at) / RFU TPSAB1 /// TPSB2 (11721975_s_at) / Fold change /veh TPSAB1 /// TPSB2 (11721975_s_at) / RFU GSTM3 (11746129_a_at) / Fold change /veh GSTM3 (11746129_a_at) / RFU IL23R (11737362_x_at) / Fold change /veh IL23R (11737362_x_at) / RFU TMEM51 (11727254_a_at) / Fold change /veh TMEM51 (11727254_a_at) / RFU PIWIL2 (11732686_x_at) / Fold change /veh PIWIL2 (11732686_x_at) / RFU ORM1 (11744905_x_at) / Fold change /veh ORM1 (11744905_x_at) / RFU CCDC152 (11743942_at) / Fold change /veh CCDC152 (11743942_at) / RFU ECM1 (11717891_a_at) / Fold change /veh ECM1 (11717891_a_at) / RFU IL23R (11748794_a_at) / Fold change /veh IL23R (11748794_a_at) / RFU TNFAIP8L3 (11732012_x_at) / Fold change /veh TNFAIP8L3 (11732012_x_at) / RFU MBOAT4 (11741988_at) / Fold change /veh MBOAT4 (11741988_at) / RFU 11764193_at / Fold change /veh 11764193_at / RFU TMEM53 (11763286_at) / Fold change /veh TMEM53 (11763286_at) / RFU MAGEB2 (11727129_at) / Fold change /veh MAGEB2 (11727129_at) / RFU TMEM200A (11744735_a_at) / Fold change /veh TMEM200A (11744735_a_at) / RFU CCDC152 (11751479_a_at) / Fold change /veh CCDC152 (11751479_a_at) / RFU FAM211A (11726209_a_at) / Fold change /veh FAM211A (11726209_a_at) / RFU RGS16 (11746705_a_at) / Fold change /veh RGS16 (11746705_a_at) / RFU VCAN (11755009_s_at) / Fold change /veh VCAN (11755009_s_at) / RFU RHOB (11743442_s_at) / Fold change /veh RHOB (11743442_s_at) / RFU RGS16 (11720943_a_at) / Fold change /veh RGS16 (11720943_a_at) / RFU RGS16 (11720944_at) / Fold change /veh RGS16 (11720944_at) / RFU, VPS4B / Fold change vs veh, VPS4B / RFU, CREB1 / Fold change vs veh, CREB1 / RFU, DNAJC13 / Fold change vs veh, DNAJC13 / RFU, GNAQ / Fold change vs veh, GNAQ / RFU, CDK5R1 / Fold change vs veh, CDK5R1 / RFU, ZRANB3 / Fold change vs veh, ZRANB3 / RFU, CUL4A / Fold change vs veh, CUL4A / RFU, CCNY / Fold change vs veh, CCNY / RFU, UFL1 / Fold change vs veh, UFL1 / RFU, COG3 / Fold change vs veh, COG3 / RFU, DIAPH2 / Fold change vs veh, DIAPH2 / RFU, SKA2 / Fold change vs veh, SKA2 / RFU, AFF3 / Fold change vs veh, AFF3 / RFU, LMF1 / Fold change vs veh, LMF1 / RFU, IPO11 / Fold change vs veh, IPO11 / RFU, DFFB / Fold change vs veh, DFFB / RFU, FOXP1 / Fold change vs veh, FOXP1 / RFU, CARD8 / Fold change vs veh, CARD8 / RFU, STRN3 / Fold change vs veh, STRN3 / RFU, ADK / Fold change vs veh, ADK / RFU, RASSF2 / Fold change vs veh, RASSF2 / RFU, WIPF1 / Fold change vs veh, WIPF1 / RFU, LARP1B / Fold change vs veh, LARP1B / RFU, RASA1 / Fold change vs veh, RASA1 / RFU, RB1 / Fold change vs veh, RB1 / RFU, PPFIA1 / Fold change vs veh, PPFIA1 / RFU, MAT2A / Fold change vs veh, MAT2A / RFU, CCT5 / Fold change vs veh, CCT5 / RFU, WDR92 / Fold change vs veh, WDR92 / RFU, CUX1 / Fold change vs veh, CUX1 / RFU, TTC7A / Fold change vs veh, TTC7A / RFU, TMEM135 / Fold change vs veh, TMEM135 / RFU, DEPTOR / Fold change vs veh, DEPTOR / RFU, CPM / Fold change vs veh, CPM / RFU, DNAJB6 / Fold change vs veh, DNAJB6 / RFU, CACNA2D3 / Fold change vs veh, CACNA2D3 / RFU, DTX4 / Fold change vs veh, DTX4 / RFU, TFCP2 / Fold change vs veh, TFCP2 / RFU, GMCL1 /// GMCL1P1 / Fold change vs veh, GMCL1 /// GMCL1P1 / RFU, AEBP2 / Fold change vs veh, AEBP2 / RFU, SNHG1 /// SNORD22 /// SNORD25 /// SNORD26 /// SNORD27 /// SNORD28 /// SNORD29 /// SNORD31 / Fold change vs veh, SNHG1 /// SNORD22 /// SNORD25 /// SNORD26 /// SNORD27 /// SNORD28 /// SNORD29 /// SNORD31 / Fold change (Aza/veh), C12orf56 (ProbeSet 11735607_a_at) / Fold change (ACY-1035/veh), C12orf56 (ProbeSet 11735607_a_at) / Fold change (Aza/veh), FGFR1OP (ProbeSet 11751329_s_at) / Fold change (ACY-1035/veh), FGFR1OP (ProbeSet 11751329_s_at) / Fold change (Aza/veh), VPS36 (ProbeSet 11739960_a_at) / Fold change (ACY-1035/veh), VPS36 (ProbeSet 11739960_a_at) / RFU SYPL1 (11715823_x_at) / Fold change /veh SYPL1 (11715823_x_at) / RFU IGFBP7 (11715501_s_at) / Fold change /veh IGFBP7 (11715501_s_at) / RFU REEP3 (11722064_at) / Fold change /veh REEP3 (11722064_at) / RFU IGLL1 (11728026_x_at) / Fold change /veh IGLL1 (11728026_x_at): dose or concentration left out as unconfirmed
Settings: ProbeSet 11746640_a_at; LIST D

Nc1ccc(-c2cccs2)cc1NC(=O)c1ccc2c(c1)cc(C1CC1)n2CCN1CCOCC1 [ACY-1035]
RFU, RASSF2: 39.78 RFU
